What was measured:
Cavia porcellus [1] = species on record: Cavia porcellus; assay: Negative log concentration effecting 50% blockade of isoproterenol-induced rate responses in vitro in guinea pig right atria.; format: functional; settings: read-out: pA2 (converted)
Cavia porcellus [2] = species on record: Cavia porcellus; assay: Inhibition of isoproterenol-induced responses in guinea pig trachea.; format: functional; settings: read-out: pA2 (converted)
Cavia porcellus [3] = species on record: Cavia porcellus; assay: Cardioselectivity determined (Antilog [pA2 (atria) - pA2 (trachea)] )
Canis lupus familiaris = assay: Time for 80% recovery from 50% blockade levels after 3-h infusions of drug(in vivo)
Cavia porcellus [4] = assay: Less than 80% recovery from 50% blockade levels after 3-h infusions of drug(in vivo)
Cavia porcellus [5] = species on record: Cavia porcellus; assay: No blockade was observed at 10 e-6 M in guinea pig right atria (In vitro); format: functional; settings: read-out: pA2 (converted)

| Compound | Kb (Cavia porcellus [1]) [nM] | Kb (Cavia porcellus [2]) [nM] | Selectivity (Cavia porcellus [3]) | Duration (Canis lupus familiaris) [min] | Duration (Cavia porcellus [4]) [min] | Kb (Cavia porcellus [5]) [nM] |
| --- | --- | --- | --- | --- | --- | --- |
| COC(=O)c1ccccc1OCC(O)CNCCNC(=O)Cc1ccccc1 (configuration not stated) | 5.01 | 20 | 4 | 42 | – | – |
| COC(=O)c1ccccc1OCC(O)CNC(C)(C)CNS(=O)(=O)c1ccccc1 (configuration not stated) | – | 1.58 | – | – | – | – |
| COC(=O)c1ccccc1OCC(O)CNCCNS(=O)(=O)N(C)C (configuration not stated) | 31.6 | 50.1 | – | 15 | – | – |
| CCOC(=O)N1CCC(=NCC(O)COc2ccccc2C(=O)OC)CC1 (configuration not stated) | > 1000 | – | – | – | – | – |
| COC(=O)CCc1ccccc1OCC(O)CNCCNC(=O)C(C)C (configuration not stated) | 25.1 | 20 | – | – | >60 | – |
| COC(=O)c1ccccc1OCC(O)CNC(C)(C)CNC(N)=O (configuration not stated) | 1.26 | 3.16 | 2.5 | >60 | – | – |
| COC(=O)c1ccccc1OCC(O)CNCCNS(=O)(=O)c1ccc(C)cc1 (configuration not stated) | 158 | 79.4 | – | – | – | – |
| CCOC(=O)c1ccccc1OCC(O)CNC(C)(C)CNC(N)=O (configuration not stated) | 0.126 | 0.501 | 4 | – | >60 | – |
| COC(=O)c1ccccc1OCC(O)CNC(C)(C)CNC(=O)N1CCOCC1 (configuration not stated) | 0.2 | 1 | 5 | – | >60 | – |
| COC(=O)c1ccccc1OCC(O)CNCCNC(C)=O (configuration not stated) | 50.1 | 100 | 2 | 18 | – | – |
| COC(=O)c1ccccc1OCC(O)CNCc1nc2ccccc2[nH]1 (configuration not stated) | 316 | – | – | – | – | – |
| COC(=O)c1ccccc1OCC(O)CNCCNc1cc(Cl)c2ccccc2c1O (configuration not stated) | 631 | – | – | – | – | – |
| COC(=O)/C=C/c1ccccc1OCC(O)CNCCNC(=O)C(C)C (configuration not stated) | 0.398 | 0.794 | 2 | – | >60 | – |
| COC(=O)c1ccccc1OCC(O)CNC(C)C (configuration not stated) | 5.01 | 12.6 | 2.5 | 15 | – | – |
| COC(=O)c1ccccc1OCC(O)CNCCNC(=O)Nc1ccccc1 (configuration not stated) | 7.94 | 200 | 25.1 | – | >60 | – |
| COC(=O)c1ccccc1OCC(O)CN=C1CCN(C=O)CC1 (configuration not stated) | > 1000 | – | – | – | – | – |
| COC(=O)c1ccccc1OCC(O)CNCCc1ccc(OC)c(OC)c1 (configuration not stated) | – | 79.4 | – | 30 | – | – |
| COC(=O)c1ccccc1OCC(O)CNC(C)(C)C (configuration not stated) | – | – | – | 22 | – | – |
| COC(=O)c1ccccc1OCC(O)CNCCNC(=O)C(C)C (configuration not stated) | 7.94 | 31.6 | 4 | 17 | – | – |
| COC(=O)c1ccc(OCC(O)CNCCN2CCCC2)cc1 (configuration not stated) | – | – | – | – | – | > 1000 |
| COC(=O)c1ccc(OCC(O)CNC(C)C)cc1 (configuration not stated) | – | 3160 | – | – | – | – |
| CCOC(=O)c1ccccc1OCC(O)CNCCNC(=O)C(C)C (configuration not stated) | 3.16 | 20 | 6.3 | 40 | – | – |
| COC(=O)c1ccc(OCC(O)CNCCN2CCOCC2)cc1 (configuration not stated) | – | – | – | – | – | > 1000 |
| CCOC(=O)NCC(C)(C)NCC(O)COc1ccccc1C(=O)OC (configuration not stated) | 2.51 | 6.31 | 2.5 | 30 | – | – |
| Cc1ccccc1OCC(O)CNCCNC(=O)C(C)C (configuration not stated) | 5.01 | 20 | 4 | – | >60 | – |
| COC(=O)c1ccccc1OCC(O)CNCCNc1ccc([N+](=O)[O-])cn1 (configuration not stated) | 31.6 | 79.4 | 2.5 | 15 | – | – |
| COC(=O)c1ccc(OCC(O)CNCCN2CCCCC2)cc1 (configuration not stated) | – | – | – | – | – | > 1000 |
| Cc1ccccc1OCC(O)CNC(C)C (configuration not stated) | 2.51 | 6.31 | 2.5 | – | >60 | – |
| CC(C)NCC(O)COc1cccc2ccccc12 (configuration not stated) [PROPRANOLOL] | – | – | – | – | >60 | – |
